We go through two compounds from US20220267288A1, “CARDIAC THERAPEUTIC” (priority 2019, published 2022).

“Also recorded” adds a separate entry of the source. Marks after values point to notes of the source that are not given here.

In one series the test system is hiPSC-CM. Description: Beat-to-beat variability (BBV), Poincaré plots. It counts as cell-based, human. As to conditions: 10 nM. The text has this: The BBV calculations were done using Kubios HRV2.2 (Department of Applied Physics, University of Eastern Finland, Kuopio, Finland)^4. BBV is visualised as scatterplots known as Poincaré plots. In these plots, each time interval between two successive beats [inter-beat interval (RRn)] is plotted against the subsequent interval (RRn+1). Poincaré plot descriptors SD1 and SD2 define the extent of variability. SD1 represents a measure for short-term variability, whereas SD2 describes long-term variability^5.

Series [1] in a line: Metabolic stability (substrate depletion) with HLM. The format is in vitro ADME, human. The settings on record: for elimination rate constant k by HLM / half-life at 1 μM: 1 μM substrate, HLM 0.5 mg/mL; for half-life at 1 μM / microsomal CLint at 1 μM: human, pooled human liver microsomes, pH 7.4; for half-life at 1 μM: read-out: T1/2 by HLM; for microsomal CLint at 1 μM: substrate depletion, read-out: Intrinsic clearance, CLint HLM. On the procedure:
(§1) The metabolic stability experiments were performed to derive intrinsic clearance (CLint) values via the substrate depletion method. […] NADPH A was subsequently added to initiate the reaction. […] The reaction mixtures were incubated at 37° C. with gentle agitation. At the respective time points (0-60 min), 80 μL of the reaction mixture was quenched using an equal volume of ice-cold ACN with 1 μM tamoxifen as internal standard (IS). The samples were then centrifuged at 3220 g at 4° C. for 30 min before transferring the supernatant to a 96-well plate for liquid chromatography-tandem mass spectrometry (LC-MS/MS) analysis.
(§2) The mean of triplicate peak area ratios for each compound was normalized to that of the same compound at the 0 min time point to obtain the percentage of substrate remaining at each time point. This was plotted against incubation time for each compound and the data was then fitted to a one-phase decay model using GraphPad Prism software (version 8.02; GraphPad Inc., San Diego, Calif.) to obtain an estimation for the elimination rate constant (k). CLint was then calculated based on equation 3:
(§3) In equation 3, k=elimination rate constant (min^−1); V=volume of incubation mixture (mL); P=amount of protein in mixture (mg).

For series [2], the target named is T1, CYP3A5 (Homo sapiens, UniProt P20815).
T1 construct: purchased BD Gentest (Woburn, Mass.)
T1 sequence (P20815 whole entry): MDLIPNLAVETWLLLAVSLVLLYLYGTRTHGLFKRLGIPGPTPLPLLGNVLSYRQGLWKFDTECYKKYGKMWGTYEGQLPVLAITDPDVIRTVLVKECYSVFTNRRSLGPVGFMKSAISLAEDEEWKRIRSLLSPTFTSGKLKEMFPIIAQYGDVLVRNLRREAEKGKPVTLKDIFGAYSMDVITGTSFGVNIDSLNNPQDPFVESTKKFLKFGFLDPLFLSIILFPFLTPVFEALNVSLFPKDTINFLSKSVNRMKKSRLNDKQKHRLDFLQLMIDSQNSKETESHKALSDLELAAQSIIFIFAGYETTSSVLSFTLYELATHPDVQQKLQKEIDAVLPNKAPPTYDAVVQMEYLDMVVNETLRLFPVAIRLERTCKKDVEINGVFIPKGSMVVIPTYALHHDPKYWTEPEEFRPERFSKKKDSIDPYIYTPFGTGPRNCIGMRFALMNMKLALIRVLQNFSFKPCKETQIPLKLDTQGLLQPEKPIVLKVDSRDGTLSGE
Description: Metabolic stability (substrate depletion) with CYP3A5. The format is in vitro ADME. The settings on record: for elimination rate constant k by CYP3A5 / half-life at 1 μM: 1 μM substrate, CYP3A5 10 pmol/mL; for CLint (CYP3A5): PBPK parameter, in vitro data obtained; for half-life at 1 μM: human, CYP3A5 enzyme, pH 7.4, read-out: T1/2 by CYP3A5; for Intrinsic clearance, CLint CYP3A5: substrate depletion. As for the experimental part:
as §1, §2, §3

The target in series [3] is T1, CYP3A5. Description: Time- and concentration-dependent inactivation of CYP3A5, rivaroxaban probe. It counts as in vitro ADME. The settings on record: recombinant CYP3A5, pH 7.4, probe rivaroxaban (50 μM), in vitro data obtained, read-out: Mechanism-based inactivation KI CYP3A5. On the procedure:
Incubations were conducted in triplicates in 96-well plates. Primary incubation mixtures comprising various concentrations of inhibitor (0-20 μM) were pre-incubated at 37° C. for 3 min with CYP3A4 or CYP3A5 (20 pmol/mL) and NADPH B in potassium phosphate buffer (100 mM, pH 7.4). To initiate the enzymatic reaction, 5 μL NADPH A was added to the primary incubation. The final primary incubation mixture volume was 100 μL and contained <1% v/v organic solvent. At different pre-incubation time points (3, 8, 15, 22, 30, and 45 min) after the addition of NADPH A, 5 μL aliquots of the primary incubation were transferred to 95 μL of the secondary incubation containing 50 μM rivaroxaban, the NADPH A and B, and potassium phosphate buffer (100 mM, pH 7.4) to yield a 20-fold dilution. The secondary incubation mixtures were incubated at 37° C. for 2 h with CYP3A4 or CYP3A5 before 80 μL aliquots were removed and quenched with an equal volume of ice-cold ACN containing 4 μM dexamethasone as IS. The samples were then centrifuged at 3220 g at 4° C. for 30 min before transferring the supernatant to a 96-well plate for liquid chromatography-tandem mass spectrometry (LC-MS/MS) analysis. The main rivaroxaban metabolite, morpholinone hydroxylated metabolite, was quantified using LC-MS/MS analysis. […]

The nature of series [4]: Parallel artificial membrane permeability assay (PAMPA). It counts as in vitro ADME. As to conditions: read-out: Effective permeability. On the procedure: (§4) The aqueous solubility of each compound was measured in universal buffer (pH 7.4) using MultiscreenHTS PCF Filter Plates. The effective permeability of each compound was measured using the parallel artificial membrane permeability assay (PAMPA).

Series [5] can be described thus: Aqueous solubility, MultiscreenHTS PCF Filter Plates. It counts as physicochemical. As to conditions: aqueous buffer; universal buffer (pH 7.4). As for the experimental part:
as §4

For a further series, the target named is T2, CYP3A4 (Homo sapiens, UniProt P08684).
T2 construct: purchased BD Gentest (Woburn, Mass.)
T2 sequence (P08684 whole entry): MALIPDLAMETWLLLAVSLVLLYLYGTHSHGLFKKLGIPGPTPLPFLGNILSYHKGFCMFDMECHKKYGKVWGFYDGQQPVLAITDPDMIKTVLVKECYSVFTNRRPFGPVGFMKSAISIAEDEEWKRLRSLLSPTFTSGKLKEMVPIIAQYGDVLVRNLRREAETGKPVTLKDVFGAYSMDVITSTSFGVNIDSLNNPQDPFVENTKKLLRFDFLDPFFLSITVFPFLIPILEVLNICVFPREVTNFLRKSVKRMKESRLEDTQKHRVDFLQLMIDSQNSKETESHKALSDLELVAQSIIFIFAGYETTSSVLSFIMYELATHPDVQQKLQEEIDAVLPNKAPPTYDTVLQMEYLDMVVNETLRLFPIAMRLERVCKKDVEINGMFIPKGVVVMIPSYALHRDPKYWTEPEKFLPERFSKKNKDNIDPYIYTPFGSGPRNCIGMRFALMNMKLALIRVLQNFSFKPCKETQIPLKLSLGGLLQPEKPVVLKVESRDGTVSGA
Nature of the series: Time- and concentration-dependent inactivation of CYP3A4, rivaroxaban probe. As to conditions: for KI (inactivation): human, recombinant CYP3A4, pH 7.4, probe rivaroxaban (50 μM), in vitro data obtained, rivaroxaban probe, read-out: Mechanism-based inactivation KI CYP3A4. The format is in vitro ADME. On the procedure:
Incubations were conducted in triplicates in 96-well plates. Primary incubation mixtures comprising various concentrations of inhibitor (0-20 μM) were pre-incubated at 37° C. for 3 min with CYP3A4 or CYP3A5 (20 pmol/mL) and NADPH B in potassium phosphate buffer (100 mM, pH 7.4). To initiate the enzymatic reaction, 5 μL NADPH A was added to the primary incubation. The final primary incubation mixture volume was 100 μL and contained <1% v/v organic solvent. At different pre-incubation time points (3, 8, 15, 22, 30, and 45 min) after the addition of NADPH A, 5 μL aliquots of the primary incubation were transferred to 95 μL of the secondary incubation containing 50 μM rivaroxaban, the NADPH A and B, and potassium phosphate buffer (100 mM, pH 7.4) to yield a 20-fold dilution. The secondary incubation mixtures were incubated at 37° C. for 2 h with CYP3A4 or CYP3A5 before 80 μL aliquots were removed and quenched with an equal volume of ice-cold ACN containing 4 μM dexamethasone as IS. The samples were then centrifuged at 3220 g at 4° C. for 30 min before transferring the supernatant to a 96-well plate for liquid chromatography-tandem mass spectrometry (LC-MS/MS) analysis. The main rivaroxaban metabolite, morpholinone hydroxylated metabolite, was quantified using LC-MS/MS analysis.
The mean of triplicate peak area ratios for each inhibitor concentration and pre-incubation time was normalized to that of 0 μM inhibitor with the same pre-incubation time. The amount of rivaroxaban metabolite formed during the secondary incubation, a measure of the probe substrate activity remaining, was computed and the natural logarithm of this measure was plotted against inactivation pre-incubation time for each inactivator concentration. For each concentration, the data was then fitted to a linear regression model, through which kobs (apparent inactivation rate constant) was obtained as the negative gradient of the linear regression. […]

The target in the next series is T3, CYP2J2 (Homo sapiens, UniProt P51589).
T3 sequence (P51589 1-502): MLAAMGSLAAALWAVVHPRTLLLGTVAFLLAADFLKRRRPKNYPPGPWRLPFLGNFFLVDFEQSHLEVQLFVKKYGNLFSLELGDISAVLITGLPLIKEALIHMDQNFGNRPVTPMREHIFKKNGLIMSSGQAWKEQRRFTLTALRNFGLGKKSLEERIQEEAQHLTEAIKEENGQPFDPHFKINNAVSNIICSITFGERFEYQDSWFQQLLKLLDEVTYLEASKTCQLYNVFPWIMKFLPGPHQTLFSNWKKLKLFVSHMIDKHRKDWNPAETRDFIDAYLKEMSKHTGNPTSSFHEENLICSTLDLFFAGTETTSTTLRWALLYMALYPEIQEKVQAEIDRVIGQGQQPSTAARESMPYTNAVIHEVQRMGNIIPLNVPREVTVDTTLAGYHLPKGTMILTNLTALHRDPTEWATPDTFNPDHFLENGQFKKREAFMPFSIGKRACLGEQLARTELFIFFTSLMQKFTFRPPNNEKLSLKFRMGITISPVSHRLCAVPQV
Description: In-vitro metabolic half-life with recombinant CYP2J2. It counts as in vitro ADME. As to conditions: recombinant CYP2J2, NADPH, 1 μM drug, read-out: Metabolic half-life (T1/2).

Broadly, the solubility is how much of the substance goes into solution per volume. A low value points to little dissolved substance. For `CCCCc1oc2ccc(NS(C)(=O)=O)cc2c1C(=O)c1ccc(OCCCN(CCCC)CCCC)cc1.Cl` [Dronedarone], the “beat-to-beat variability (BBV), inter-beat intervals in Poincaré plot” value with hiPSC-CM was “do not cluster at the centroid of the ellipse and diffuse across the plot”. For the same compound, in series [1], the “elimination rate constant k by HLM” value was 0.06446 min⁻¹, the half-life at 1 μM was 10.8 min and the microsomal CLint at 1 μM was 129 µL/min/mg. At CYP3A5 [2], the “elimination rate constant k by CYP3A5” value is 0.03989 min⁻¹; the “CLint (CYP3A5)” value is on record as 14.1812* μL/min/mg microsomal protein; the half-life at 1 μM is 17.4 min; the “Intrinsic clearance, CLint CYP3A5” value was 3.99 µL/min/pmol. Moreover, the “Intrinsic clearance, CLint CYP3A5” value on CYP3A5 [2] (listed as dronedarone) was 3.989 µL/min/pmol. For the same compound, the KI (inactivation) on CYP3A5 [3] is 5.37 µM. Further, the Papp in series [4] came to 3.46 ± 0.5 ×10⁻⁶ cm/s. In series [5], this compound gave a solubility of 3.22 µg/mL. In addition, on CYP3A4, the KI (inactivation) was found to be 5.3 µM. For the same compound, the “MBI potency against CYP3A4” value at CYP3A4 (rivaroxaban probe substrate) was determined as 0.00505 AV min^−1. Besides, at CYP2J2, the half-life at 1 μM is 4.95 min.
On to `Cl.[2H]c1c(NS(C)(=O)=O)c([2H])c2c(C(=O)c3ccc(OCCCN(CCCC)CCCC)cc3)c(CCCC)oc2c1[2H]` [Poyendarone, Methanesulfonamide, N-(2-butyl-3-(4-(3-(dibutylamino)propoxy)benzoyl)-1-benzo(4,6,7-d3)-furan-5-yl)hydrochloride], for which the “beat-to-beat variability (BBV), inter-beat intervals in Poincaré plot” value in the series with hiPSC-CM is given as “least variability among the beats; also recorded: lack of beat-to-beat variability (BBV)”. Also, in series [1], the “elimination rate constant k by HLM” value stood at 0.06472 min⁻¹, the half-life at 1 μM is 10.7 min and the microsomal CLint at 1 μM is 129 µL/min/mg. On CYP3A5 [2], the “elimination rate constant k by CYP3A5” value was determined as 0.02757 min⁻¹; the “CLint (CYP3A5)” value is 14.2384* μL/min/mg microsomal protein; the half-life at 1 μM worked out at 25.1 min; the “Intrinsic clearance, CLint CYP3A5” value was 2.76 µL/min/pmol. In addition, the “Intrinsic clearance, CLint CYP3A5” value on CYP3A5 [2] (listed as poyendarone) was found to be 2.757 µL/min/pmol. Also, the KI (inactivation) on CYP3A5 [3] came to 2.91 µM. The Papp in series [4] came out at 4.08 ± 0.5 ×10⁻⁶ cm/s. Further, the solubility in series [5] was found to be 2.43 µg/mL. The KI (inactivation) at CYP3A4 amounted to 3.19 µM. In addition, the half-life at 1 μM on CYP2J2 was 5.32 min.
